Assay results published in PubChem BioAssay AID330 (DTP/NCI, 2004).
“And” between values parts separate entries of the source, which are not always exact repeats. Equal values may be shown once. Inconclusive results and toxic doses are left out. How the source made its calls: active means survival T/C of 150% or more; inactive means T/C below 125% in these data.

Test system: P388 leukemia ip, CD2F1 mice, survival T/C
Assay: NCI In Vivo Anticancer Drug Screen. Data for tumor model P388 Leukemia (intraperitoneal) in CD2F1 (CDF1) mice
Details: endpoint: median survival time, higher = longer survival
Procedure, shortened: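 Mice carrying the transplanted tumor received test compound or vehicle. Survival was recorded in each group, and the value is the treated-group measurement divided by that of the vehicle-treated control group.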

[1] = dose: 50.0 mg/kg/injection, schedule: Q01DX009 (ip), vehicle: Klucel (hydroxypropylcellulose) (HPC)
[2] = dose: 100.0 mg/kg/injection, schedule: Q01DX009 (ip), vehicle: Klucel (hydroxypropylcellulose) (HPC)
[3] = dose: 200.0 mg/kg/injection, schedule: Q01DX009 (ip), vehicle: Klucel (hydroxypropylcellulose) (HPC)
[4] = dose: 50.0 mg/kg/injection, schedule: Q01DX005 (ip), vehicle: saline with Tween-80
[5] = dose: 100.0 mg/kg/injection, schedule: Q01DX005 (ip), vehicle: saline with Tween-80
[6] = dose: 200.0 mg/kg/injection, schedule: Q01DX005 (ip), vehicle: saline with Tween-80
[7] = dose: 25.0 mg/kg/injection, schedule: Q04DX003 (ip), vehicle: saline with Tween-80
[8] = dose: 50.0 mg/kg/injection, schedule: Q04DX003 (ip), vehicle: saline with Tween-80
[9] = dose: 100.0 mg/kg/injection, schedule: Q04DX003 (ip), vehicle: saline with Tween-80
[10] = dose: 200.0 mg/kg/injection, schedule: Q04DX003 (ip), vehicle: saline with Tween-80
[11] = dose: 12.5 mg/kg/injection, schedule: Q01DX009 (ip), vehicle: saline
[12] = dose: 50.0 mg/kg/injection, schedule: Q01DX009 (ip), vehicle: saline
[13] = dose: 60.0 mg/kg/injection, schedule: Q01DX005 (ip), vehicle: saline with Tween-80
[14] = dose: 50.0 mg/kg/injection, schedule: Q01DX005 (ip), vehicle: Klucel (hydroxypropylcellulose) (HPC)
[15] = dose: 100.0 mg/kg/injection, schedule: Q01DX005 (ip), vehicle: Klucel (hydroxypropylcellulose) (HPC)
[16] = dose: 120.0 mg/kg/injection, schedule: Q01DX005 (ip), vehicle: saline with Tween-80
[17] = dose: 240.0 mg/kg/injection, schedule: Q01DX005 (ip), vehicle: saline with Tween-80
[18] = dose: 50.0 mg/kg/injection, schedule: Q01DX009 (ip), vehicle: saline with Tween-80
[19] = dose: 25.0 mg/kg/injection, schedule: Q01DX009 (ip), vehicle: Klucel (hydroxypropylcellulose) (HPC)

Measured: T/C

O=c1c2ccccc2nc2n1CCC/C2=C\c1ccc(Cl)cc1
inactive: dose: 92.5 mg/kg/injection, schedule: Q04DX002 (ip), vehicle: Klucel (hydroxypropylcellulose) (HPC) 97 % of control | dose: 185.0 mg/kg/injection, schedule: Q04DX002 (ip), vehicle: Klucel (hydroxypropylcellulose) (HPC) 105 % of control | dose: 370.0 mg/kg/injection, schedule: Q04DX002 (ip), vehicle: Klucel (hydroxypropylcellulose) (HPC) 97 % of control

COc1ccc(C(=O)Cc2nc3nnc(NC(=O)Nc4ccc(Cl)cc4)n3nc2CC(=O)c2ccc(OC)cc2)cc1
inactive: dose: 60.0 mg/kg/injection, schedule: Q01DX005 (ip), vehicle: saline 97 % of control | dose: 120.0 mg/kg/injection, schedule: Q01DX005 (ip), vehicle: saline 94 % of control | dose: 240.0 mg/kg/injection, schedule: Q01DX005 (ip), vehicle: saline 95 % of control

O=P(c1ccccc1)(c1ccccc1)C(O)c1ccncc1 (stereo not drawn)
inactive: [1] 102 % of control | [2] 103 % of control | [3] 103 % of control

O=C(O)c1cc(-n2c(-c3ccccc3)cc3c2CCc2ccccc2-3)ccc1O
inactive: [4] 109 % of control | [5] 110 % of control

COC(=O)/C=C1/C2C=CC(O2)C1C(=O)OC (stereo not drawn)
inactive: [4] 96 % of control | [5] 99 % of control | [6] 97 % of control

O=c1[nH]c2c([N+](=O)[O-])cccc2nc1/C=C(\O)c1cccc([N+](=O)[O-])c1
inactive: dose: 7.5 mg/kg/injection, schedule: Q01DX005 (ip), vehicle: Klucel + Tween-80 94 % of control | dose: 15.0 mg/kg/injection, schedule: Q01DX005 (ip), vehicle: Klucel + Tween-80 94 % of control | dose: 30.0 mg/kg/injection, schedule: Q01DX005 (ip), vehicle: Klucel + Tween-80 88 % of control

COc1nc(N=[N+]=[N-])nc(-c2c(OC)ccc3ccccc23)n1
inactive: dose: 25.0 mg/kg/injection, schedule: Q01DX005 (ip), vehicle: saline with Tween-80 105 % of control | [4] 96 % of control | [5] 89 % of control | [6] 89 % of control

CO/C=C(/C#N)S(=O)(=O)/C(C#N)=C/OC
inactive: [4] 100 % of control | [5] 112 % of control | [6] 104 % of control

C=C1C(=O)CCC1C#N (stereo not drawn)
inactive: dose: 50.0 mg/kg/injection, schedule: Q04DX002 (ip), vehicle: suspension in saline 100 % of control | dose: 100.0 mg/kg/injection, schedule: Q04DX002 (ip), vehicle: suspension in saline 100 % of control | dose: 200.0 mg/kg/injection, schedule: Q04DX002 (ip), vehicle: suspension in saline 93 % of control

CCc1c(C)[nH]c2ccc(N)cc12
inactive: [7] 99 % of control | [8] 93 % of control | [9] 93 % of control | [10] 110 % of control

Cc1cc(OC(=O)Nc2ccc(C)c([N+](=O)[O-])c2)c(Br)cc1Cl
inactive: [11] 100 % of control | dose: 25.0 mg/kg/injection, schedule: Q01DX009 (ip), vehicle: saline 93 % of control | dose: 50.0 mg/kg/injection, schedule: Q01DX009 (ip), vehicle: saline + alcohol 96 % of control | [12] 100 % of control | dose: 100.0 mg/kg/injection, schedule: Q01DX009 (ip), vehicle: saline + alcohol 99 % of control

COCCN1C(N)=C(C#N)C=C2CCCC(N=C(C#N)C#N)=C21
inactive: [13] 101 % of control | [5] 102 % of control | [6] 102 % of control

O=[N+]([O-])c1ccc(N=Nc2ccc(NNc3ccc([N+](=O)[O-])cn3)c3cc4ccccc4cc23)nc1
inactive: [4] 100 % of control | [5] 110 % of control

Cc1c(C(=O)c2ccc3c(c2)OCO3)ccc2c1OCO2
inactive: [14] 105 % of control | [15] 105 % of control | dose: 200.0 mg/kg/injection, schedule: Q01DX005 (ip), vehicle: Klucel (hydroxypropylcellulose) (HPC) 98 % of control

CCC(C)C1(O)OC2CC3(C)OC(=CC3=O)/C(C)=C\C3OC(=O)C1(C)C32 (stereo not drawn)
inactive: dose: 10.0 mg/kg/injection, schedule: Q01DX005 (ip), vehicle: saline + alcohol 96 % of control | dose: 20.0 mg/kg/injection, schedule: Q01DX005 (ip), vehicle: saline + alcohol 100 % of control | dose: 40.0 mg/kg/injection, schedule: Q01DX005 (ip), vehicle: saline + alcohol 105 % of control | dose: 80.0 mg/kg/injection, schedule: Q01DX005 (ip), vehicle: saline + alcohol 99 % of control

COc1ccc2nc3cc(Cl)ccc3c(NCCCCCCCCNc3c4ccc(Cl)cc4nc4ccc(OC)cc34)c2c1
inactive: dose: 0.62 mg/kg/injection, schedule: Q01DX009 (ip), vehicle: other 101 % of control | dose: 1.25 mg/kg/injection, schedule: Q01DX009 (ip), vehicle: other 101 % of control | dose: 2.5 mg/kg/injection, schedule: Q01DX009 (ip), vehicle: other 104 % of control | dose: 5.0 mg/kg/injection, schedule: Q01DX009 (ip), vehicle: other 100 % of control | dose: 10.0 mg/kg/injection, schedule: Q01DX009 (ip), vehicle: other 97 % of control | dose: 20.0 mg/kg/injection, schedule: Q01DX009 (ip), vehicle: other 109 % of control

Cc1cccc2nc(-c3ccccn3)n(CCc3ccccn3)c12
inactive: [14] 98 % of control | [15] 106 % of control

CS(=O)(=O)/C=C/c1ccc[nH]1
inactive: [1] 98 % of control | [2] 99 % of control | [3] 99 % of control

O=C(O)C(=Cc1c2ccccc2cc2ccccc12)C(=O)O
inactive: [4] 95 % of control | [5] 99 % of control | [6] 114 % of control

Nc1ccccc1C(=O)CC1OC(=O)c2ccccc21 (stereo not drawn)
inactive: [13] 105 % of control | [16] 105 % of control | [17] 97 % of control

CCc1cn[nH]c(=O)c1
inactive: [12] 110 % of control | dose: 100.0 mg/kg/injection, schedule: Q01DX009 (ip), vehicle: saline 96 % of control | dose: 200.0 mg/kg/injection, schedule: Q01DX009 (ip), vehicle: saline 104 % of control

O=C(NC(Cc1ccc(O)cc1)C(=O)O)c1ccccc1 (stereo not drawn)
inactive: [4] 99 % of control | [5] 100 % of control | [6] 88 % of control

CSc1nc(N)c(NS(=O)(=O)c2cccc(N)c2)c(=O)[nH]1
inactive: [13] 100 % of control | [16] 99 % of control | [17] 99 % of control

C/C(=N/NC(N)=O)c1cccc(/C(C)=N/NC(N)=O)n1.[Cl][Cu][Cl]
inactive: dose: 3.12 mg/kg/injection, schedule: Q01DX009 (ip), vehicle: saline 108 % of control | dose: 6.25 mg/kg/injection, schedule: Q01DX009 (ip), vehicle: saline 94 % of control | [11] 99 % of control

O=C1CCCCCCC1C1SCCS1 (stereo not drawn)
inactive: [18] 102 % of control | dose: 100.0 mg/kg/injection, schedule: Q01DX009 (ip), vehicle: saline with Tween-80 109 % of control | dose: 200.0 mg/kg/injection, schedule: Q01DX009 (ip), vehicle: saline with Tween-80 114 % of control

CN1C(=O)c2ccccc2NC(=O)C12O[C@@H]2c1ccccc1 (stereo partly drawn)
inactive: dose: 1.88 mg/kg/injection, schedule: Q01DX005 (ip), vehicle: DMSO 100 % of control | dose: 3.75 mg/kg/injection, schedule: Q01DX005 (ip), vehicle: DMSO 106 % of control | dose: 7.5 mg/kg/injection, schedule: Q01DX005 (ip), vehicle: DMSO 106 % of control | dose: 15.0 mg/kg/injection, schedule: Q01DX005 (ip), vehicle: DMSO 114 % of control

Nc1nc(N)sc(=S)n1
inactive: [19] 100 % of control | [1] 107 % of control | [2] 94 % of control | [3] 101 % of control

Cn1c(=O)c2[nH]c(Cc3ccsc3)nc2n(C)c1=O
inactive: [19] 110 % of control | [1] 93 % of control | [2] 99 % of control and 95 % of control

FC(F)(F)c1cccc(N=c2ccn3ccccc3c2)c1
inactive: dose: 12.5 mg/kg/injection, schedule: Q01DX009 (ip), vehicle: saline with Tween-80 103 % of control | dose: 25.0 mg/kg/injection, schedule: Q01DX009 (ip), vehicle: saline with Tween-80 96 % of control | [18] 91 % of control and 94 % of control

CC(C)(C)N1OC1c1ccccc1 (stereo not drawn)
inactive: [7] 108 % of control | [8] 105 % of control | [9] 108 % of control | [10] 108 % of control
